Laboratory results as given in patent US10765114B2, “4-amino-6-(pyridyl and 2-substitutedphenyl)-picolinates and 6-amino-2-(pyridyl and 2-substitutedphenyl)-pyrimidine-4-carboxylates and their use as herbicides” (Dow AgroSciences LLC, priority 2013, dated 2020).

What was measured:
Assay in all cases: Post-Emergent Test III (Wheat and Barley)
APESV (windgrass) = type: in vivo, Apera spica-venti
Method in brief: (§1)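 Greenhouse plants (~14 h photoperiod, 18/17 °C) at second-third true leaf stage were track-sprayed at 187 L/ha with acetone/DMSO-based spray containing Agri-Dex crop oil and X-77. Rates ran from the high rate down to 1/16×. Injury was scored visually after 21 days (0-100%); GR values came from probit analysis.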

KCHSC (kochia) = type: in vivo, Kochia scoparia
Method in brief: as §1

BRSSS = type: in vivo; details: for Visual Growth Reduction (%) 21 Days After Application, BRSSS: postemergence
Method in brief: as §1

HORSS = type: in vivo
Method in brief: as §1

TRZSS = type: in vivo
Method in brief: as §1

[1] = system: LAMPU (purple deadnettle); type: in vivo, Lamium purpureum; details: for Visual Growth Reduction (%) 21 Days After Application, LAMPU: postemergence
Method: (§2) Seeds of the desired test plant species were planted in Sun Gro MetroMix® 306 planting mixture, which typically has a pH of 6.0 to 6.8 and an organic matter content of about 30 percent, in plastic pots with a surface area of 103.2 square centimeters (cm^2). When required to ensure good germination and healthy plants, a fungicide treatment and/or other chemical or physical treatment was applied. The plants were grown for 7-36 days in a greenhouse with an approximate 14 h photoperiod which was maintained at about 18° C. during the day and 17° C. during the night. Nutrients and water were added on a regular basis and supplemental lighting was provided with overhead metal halide 1000-Watt lamps as necessary. The plants were employed for testing when they reached the second or third true leaf stage.
(§3) A weighed amount, determined by the highest rate to be tested, of each test compound was placed in a 25 mL glass vial and was dissolved in 4 mL of a 97:3 v/v mixture of acetone and DMSO to obtain concentrated stock solutions. […] The concentrated stock solutions obtained were diluted with 20 mL of an aqueous mixture containing acetone, water, isopropyl alcohol, DMSO, Agri-Dex crop oil concentrate, and X-77 surfactant in a 48:39:10:1.5:1.5:0.02 v/v ratio to obtain spray solutions containing the highest application rates. Additional application rates were obtained by serial dilution of 12 mL of the high rate solution into a solution containing 2 mL of 97:3 v/v mixture of acetone and DMSO and 10 mL of an aqueous mixture containing acetone, water, isopropyl alcohol, DMSO, Agri-Dex crop oil concentrate, and X-77 surfactant in a 48:39:10:1.5:1.5:0.02 v/v ratio to obtain ½×, ¼×, ⅛× and 1/16× rates of the high rate. Compound requirements are based upon a 12 mL application volume at a rate of 187 liters per hectare (L/ha). Formulated compounds were applied to the plant material with an overhead Mandel track sprayer equipped with 8002E nozzles calibrated to deliver 187 L/ha over an application area of 0.503 square meters at a spray height of 18 inches (43 cm) above the average plant canopy height. Control plants were sprayed in the same manner with the solvent blank.
(§4) The treated plants and control plants were placed in a greenhouse as described above and watered by subirrigation to prevent wash-off of the test compounds. After 21 dAYS, the condition of the test plants as compared with that of the untreated plants was determined visually and scored on a scale of 0 to 100 percent where 0 corresponds to no injury and 100 corresponds to complete kill and presented as indicated in Table A.
(§5) By applying the well-accepted probit analysis as described by J. Berkson in Journal of the American Statistical Society, 48, 565 (1953) and by D. Finney in “Probit Analysis” Cambridge University Press (1952), herbicidal injury of a specific compound at various rates can be used to calculate GR10, GR20, GR50, GR80 and GR90 values, which are defined as growth reduction factors that correspond to the effective dose of herbicide required to provide plant growth reduction (GR) of 10 percent, 20 percent, 50 percent, 80 percent and 90 percent, respectively. Probit analysis was applied to data collected from multiple dose rates of individual compounds utilizing the procedures explained in the following examples. The analysis of those dose rates is captured in the following tables.

SASKR (Russian thistle) = type: in vivo, Salsola tragus; details: for Visual Growth Reduction (%) 21 Days After Application, SASKR: postemergence
Method: as §2, §3, §4, §5

[2] = system: VERPE (Persian speedwell); type: in vivo, Veronica persica; details: for Visual Growth Reduction (%) 21 Days After Application, VERPE: postemergence
Method: as §2, §3, §4, §5

[3] = effective dose for growth reduction of 50 percent, probit analysis
[4] = effective dose for growth reduction of 80 percent, probit analysis
[5] = effective dose for growth reduction of 90 percent, probit analysis
[6] = effective dose for growth reduction of 10 percent, probit analysis
[7] = effective dose for growth reduction of 20 percent, probit analysis

Work on `Nc1c(F)c(-c2ccc(C(F)(F)F)nc2)nc(C(=O)O)c1Cl` [Compound 46, 4-amino-5-chloro-3-fluoro-6′-(trifluoromethyl)-[2,3′-bipyridine]-6-carboxylic acid] yielded a pest or weed control at 35 g/ha (APESV (windgrass); Apera spica-venti, post-emergence, 504 h, 35 g ai/ha, postemergence, read-out: Visual Growth Reduction (%) 21 Days After Application, APESV) of 60 to 74%, a pest or weed control at 70 g/ha (APESV (windgrass); Apera spica-venti, post-emergence, 504 h, 70 g ai/ha, postemergence, read-out: Visual Growth Reduction (%) 21 Days After Application, APESV) of 75 to 84% and a pest or weed control at 140 g/ha (APESV (windgrass); Apera spica-venti, post-emergence, 504 h, 140 g ai/ha, postemergence, read-out: Visual Growth Reduction (%) 21 Days After Application, APESV) of 85 to 94%. The “GR50, APESV” value (APESV (windgrass); [3]) was 37 g ai/ha, the “GR80, APESV” value (APESV (windgrass); [4]) was 78 g ai/ha and the “GR90, APESV” value (APESV (windgrass); [5]) was 115 g ai/ha. It also gave a pest or weed control at 35 g/ha (KCHSC (kochia); Bassia scoparia, post-emergence, 504 h, 35 g ai/ha, postemergence, read-out: Visual Growth Reduction (%) 21 Days After Application, KCHSC) of 60 to 74%, a pest or weed control at 70 g/ha (KCHSC (kochia); Bassia scoparia, post-emergence, 504 h, 70 g ai/ha, postemergence, read-out: Visual Growth Reduction (%) 21 Days After Application, KCHSC) of 60 to 74% and a pest or weed control at 140 g/ha (KCHSC (kochia); Bassia scoparia, post-emergence, 504 h, 140 g ai/ha, postemergence, read-out: Visual Growth Reduction (%) 21 Days After Application, KCHSC) of 85 to 94%. The “GR50, KCHSC” value (KCHSC (kochia); [3]) was 29 g ai/ha, the “GR80, KCHSC” value (KCHSC (kochia); [4]) was 104 g ai/ha and the “GR90, KCHSC” value (KCHSC (kochia); [5]) was greater than 140 g ai/ha. For the same compound, the “Visual Growth Reduction (%) 21 Days After Application, BRSSS” value (BRSSS; 35 g ai/ha) was “D (60-74)”, the “Visual Growth Reduction (%) 21 Days After Application, BRSSS” value (BRSSS; 70 g ai/ha) was “D (60-74)” and the “Visual Growth Reduction (%) 21 Days After Application, BRSSS” value (BRSSS; 140 g ai/ha) was “C (75-84)”. For the same compound, the “GR50, BRSSS” value (BRSSS; [3]) was 11 g ai/ha, the “GR80, BRSSS” value (BRSSS; [4]) was greater than 140 g ai/ha and the “GR90, BRSSS” value (BRSSS; [5]) was greater than 140 g ai/ha. The pest or weed control at 35 g/ha (HORSS; Hordeum vulgare, post-emergence, 504 h, 35 g ai/ha, postemergence, read-out: Visual Growth Reduction (%) 21 Days After Application, HORSS) was 60 to 74%, the pest or weed control at 70 g/ha (HORSS; Hordeum vulgare, post-emergence, 504 h, 70 g ai/ha, postemergence, read-out: Visual Growth Reduction (%) 21 Days After Application, HORSS) was 75 to 84% and the pest or weed control at 140 g/ha (HORSS; Hordeum vulgare, post-emergence, 504 h, 140 g ai/ha, postemergence, read-out: Visual Growth Reduction (%) 21 Days After Application, HORSS) was 85 to 94%. For the same compound, the “GR10, HORSS” value (HORSS; [6]) was 1 g ai/ha, the “GR20, HORSS” value (HORSS; [7]) was 3 g ai/ha and the pest or weed control at 35 g/ha (TRZSS; Triticum aestivum, post-emergence, 504 h, 35 g ai/ha, postemergence, read-out: Visual Growth Reduction (%) 21 Days After Application, TRZSS) was 75 to 84%. For the same compound, the pest or weed control at 70 g/ha (TRZSS; Triticum aestivum, post-emergence, 504 h, 70 g ai/ha, postemergence, read-out: Visual Growth Reduction (%) 21 Days After Application, TRZSS) was 75 to 84%, the pest or weed control at 140 g/ha (TRZSS; Triticum aestivum, post-emergence, 504 h, 140 g ai/ha, postemergence, read-out: Visual Growth Reduction (%) 21 Days After Application, TRZSS) was 85 to 94% and the “GR10, TRZSS” value (TRZSS; [6]) was 1 g ai/ha. For the same compound, the “GR20, TRZSS” value (TRZSS; [7]) was 1 g ai/ha, the “Visual Growth Reduction (%) 21 Days After Application, LAMPU” value ([1]; 35 g ai/ha) was “D (60-74)” and the “Visual Growth Reduction (%) 21 Days After Application, LAMPU” value ([1]; 70 g ai/ha) was “D (60-74)”. For the same compound, the “Visual Growth Reduction (%) 21 Days After Application, LAMPU” value ([1]; 140 g ai/ha) was “A (95-100)”, the “GR50, LAMPU” value [1, 3] was 14 g ai/ha and the “GR80, LAMPU” value [1, 4] was 47 g ai/ha. The “GR90, LAMPU” value [1, 5] was 89 g ai/ha, the “Visual Growth Reduction (%) 21 Days After Application, SASKR” value (SASKR (Russian thistle); 35 g ai/ha) was “E (45-59)” and the “Visual Growth Reduction (%) 21 Days After Application, SASKR” value (SASKR (Russian thistle); 70 g ai/ha) was “D (60-74)”. The “Visual Growth Reduction (%) 21 Days After Application, SASKR” value (SASKR (Russian thistle); 140 g ai/ha) was “D (60-74)”, the “GR50, SASKR” value (SASKR (Russian thistle); [3]) was 23 g ai/ha and the “GR80, SASKR” value (SASKR (Russian thistle); [4]) was greater than 140 g ai/ha. For the same compound, the “GR90, SASKR” value (SASKR (Russian thistle); [5]) was greater than 140 g ai/ha, the “Visual Growth Reduction (%) 21 Days After Application, VERPE” value ([2]; 35 g ai/ha) was “A (95-100)” and the “Visual Growth Reduction (%) 21 Days After Application, VERPE” value ([2]; 70 g ai/ha) was “A (95-100)”. For the same compound, the “Visual Growth Reduction (%) 21 Days After Application, VERPE” value ([2]; 140 g ai/ha) was “A (95-100)”, the “GR50, VERPE” value [2, 3] was 1 g ai/ha and the “GR80, VERPE” value [2, 4] was 2 g ai/ha. For the same compound, the “GR90, VERPE” value [2, 5] was 8 g ai/ha.
